# What was measured:
# [1] = system: murine P388 leukemia cells; test: Toxicity against murine P388 leukemia cells (MTT, 48 hour exposure); type: cell-based
# Protocol: P388 cells obtained from J. Mayo, National Cancer Institute, Bethesda, Md., were maintained in Roswell Park Memorial Institute medium 1640 (RPMI-1640) supplemented with 10% horse serum. All cell lines were cultured in plastic tissue culture flasks and kept in an incubator at 37° C. in humidified air containing 5% CO2. Antibiotic-free stock cultures of P388 cells were subcultured to 10^5 cells/ml by dilution in fresh growth medium at 2-3 day intervals. The means generation time of primary cultures was 14-17 hours.
# Solvent for all dilutions was methanol, which was removed from plates under vacuum. All experimental cultures were initiated in medium containing Gentamicin sulfate ([…]; Schering Corporation, Kenilworth, N.J.). […]
# To quantitate the effects on cell proliferation, 75 μl of warm growth medium containing 5 mg/ml MTT was added to each well and cultures were returned to the incubator for 90 minutes. To spectophotometrically quantitate formation of reduced formazan, plates were centrifuged (900 xg, 5 minutes), culture fluids removed by aspiration, and 200 μl of acidified isopropanol (2 ml concentrated HCl/liter isopropanol) added per well. The absorbance of the resulting solutions were measured at 570 nm with a plate reader (MR700 Microplate Reader, Dynatech Laboratories, Chantilly, Va.). […]
# [2] = system: herpes simplex virus type 1 (HSV-1), Kos strain; test: HSV-1 plaque inhibition assay in CV-1 cells; type: cell-based; conditions: anti-HSV-1 activity
# Source text: (§1) The antiviral assay for herpes simplex virus type 1 (HSV-1) is a plaque inhibition assay. CV-1 cells (a fibroblast-like cell culture derived from primary African green monkey cells) are infected with the Kos strain of HSV-1 . Cytopathic effects (CPE) of the virus are prevented from rapid spread by a methylcellulose medium. Distinct areas of infected cells or plaques are distinguished from a surrounding area of viable CV-1 cells by staining the culture with neutral red which is a stain taken up by living cells. The viral dose can be quantitated by counting the number of plaques. Compounds with antiviral activity can be identified by comparing the plaque number in the drug treated cells to the HSV-1 viral control.
# Twenty-four well plates (16 mm diameter per well) are seeded with 2×10^5 cells per well in 0.5 ml growth medium and incubated at 37°) C. with 5% CO2. The plates are used in 24 to 72 hours. Each well is infected with at least 25 but no more than 80 plaque forming units (PFU) of virus. Plates are incubated for 1.0 hours at 37° C. with 0.2 ml virus. […]
# (§2) Discs are placed in wells containing cells, virus, and overlay medium. Plates are incubated at 37° C. for 48 hours, the second overlay medium is added at […] per well, and, after 24 hours additional incubation time, the plates are read. […]
# [3] = system: combined murine splenocyte suspensions from BALB/c and C57BL/6J mice; test: Mixed lymphocyte reaction (MLR), 3H-thymidine incorporation; type: cell-based; conditions: percent of positive control (no drug)
# Protocol: 1. Murine splenocyte suspensions were prepared separately from BALB/c and C57BL/6J mice. Spleens were aseptically removed and homogenized in RPMI-1640 tissue culture medium (TCM), supplemented with 10% fetal calf serum, 2% 1-glutamine, 15 mM HEPES, 1% antibiotic-antimycotic solution, and 25 μg/ml gentamicin (GIBCO). The cell concentrations were adjusted to 2.5 ×10^6 cells/ml. Aliquots of each cell population were removed to separate tubes, and the remaining two cell suspensions combined to one tube.
# 3. A volume of 0.2 ml of the combined splenocyte suspensions was added to triplicate test wells. Positive control wells received combined splenocyte suspensions in the absence of the test extracts/compounds. Negative control wells consisted of separate (not mixed) splenocyte suspensions cultured in the absence of the test compounds.
# 4. Plates were incubated in 5% CO2 at 37° C. for 86 hours.
# 5. A volume of 0.05 ml of ^3 H-thymidine (20 μCk/ml) was added to each well, and the plates were incubated in 5% CO2 at 37° C. for an additional 5 hours.
# 6. The contents of each well of the microtiter plates were harvested onto glass fiber filter strips, and the resulting filter discs placed in scintillation vials to which 2.0 ml of scintillation fluid was added.
# 7. The amount of incorporated ^3 H-thymidine was determined by counting the vials in a liquid scintillation counter.
# 8. Triplicate counts were averaged, and the data reported as a percentage of the positive control.
# [4] = system: murine splenocytes from BALB/c mice (lymphoid cells); test: Lymphocyte viability assay (LCV), MTT; type: cell-based; conditions: percent of positive control (no drug)
# Protocol: 1. Extra and compounds were similarly tested in parallel with the MLR to determine their toxic effects on lymphoid cells using the lymphocyte viability assay (LCV).
# 3. Murine splenocyte suspensions were prepared from BALB/c mice. Spleens were aseptically removed and homogenized in RPMI-1640 tissue culture medium (TCM), supplemented with 10% fetal calf serum, 2% 1-glutamine, 15 mM HEPES, 1% antibiotic-antimycotic solution, and 25 μg/ml gentamicin (GIBCO). The cell concentrations were adjusted to 2.5 ×10^6 cells/ml.
# 4. A volume of 0.2 ml of the splenocyte suspension was added to replicate test wells. Positive control wells received splenocyte suspensions in the absence of the test extracts/compounds.
# 5. Plates were incubated at 37° C. for 86 hours. At the end of the incubation period, a volume of 75 μl of a 2.0 mg/ml solution of MTT was added to each well, and the plates were returned to the incubator for an additional 5 hours.
# 6. The supernatants from each microwell were then removed, and a volume of 200 μl of isopropanol was added and the contents mixed.
# 7. Values were obtained by comparing the optical densities (determined at 570 and 650 nm) of wells containing the test compounds with those of wells containing cells and medium only (positive control). The results are expressed as a percentage of the positive control.
# 8. Replicate counts were averaged, and the data reported as a percentage of the positive control. An LCV value of less than 60% of the positive control is an indication of cytotoxicity of the test extracts/compounds for lymphoid cells.
# CV-1 cells = test: Drug cytotoxicity in the antiviral assay; type: cell-based, African green monkey; conditions: anti-HSV-1 assay; ID50 not defined in the text, TI = ID50/ED50
# Source text: as §1
# Confluent cultures of CV-1 cells are rinsed with PBS two times and 4.0 ml trypsin solution is added to 150 cm^2 tissue sulture flask. Cells are dispersed an 10×10^6 CV-1 cells in 40 ml of growth medium are added to new 150 cm^2 flasks. The number of cells added to a cell culture flask is proportional to the area. The cell culture is confluent in 5 to 7 days for use in the antiviral assay. […]
# as §2
Compound,IC50 [1],ED50 [2],% MLR Control ([3]; 2.5 ng/ml),% MLR Control ([3]; 5.0 ng/ml),% MLR Control ([3]; 10.0 ng/ml),% MLR Control ([3]; 20.0 ng/ml),% MLR Control ([3]; 40.0 ng/ml),% MLR Control ([3]; 80.0 ng/ml),% MLR Control ([3]; 160.0 ng/ml),% MLR Control ([3]; 312.5 ng/ml),% MLR Control ([3]; 625.0 ng/ml),% MLR Control ([3]; 1250.0 ng/ml),% MLR Control ([3]; 2500.0 ng/ml),% MLR Control ([3]; 5000.0 ng/ml),% LCV Control ([4]; 2.5 ng/ml),% LCV Control ([4]; 5.0 ng/ml),% LCV Control ([4]; 10.0 ng/ml),% LCV Control ([4]; 20.0 ng/ml),% LCV Control ([4]; 40.0 ng/ml),% LCV Control ([4]; 80.0 ng/ml),further results
"CCCC[C@@H](C)C[C@@H](C)C(=O)N(C)[C@@H](CC(C)C)C(=O)N[C@H](C(=O)N(C)[C@H](C(=O)N1C[C@@H](O)C[C@H]1C(=O)N1C(=O)C=C[C@@H]1C)C(C)C)[C@H](C)OC(C)=O [Microcolin A, microcolin A]",0.0009 µg/mL,2.5 nanograms/ml,< 1%,< 1%,< 1%,< 1%,< 1%,< 1%,< 1%,< 1%,< 1%,< 1%,< 1%,< 1%,78%,71%,80%,82%,60%,59%,% LCV Control ([4]; 160.0 ng/ml): 59%; % LCV Control ([4]; 312.5 ng/ml): 48%; % LCV Control ([4]; 625.0 ng/ml): 52%; % LCV Control ([4]; 1250.0 ng/ml): 31%; % LCV Control ([4]; 2500.0 ng/ml): 18%; % LCV Control ([4]; 5000.0 ng/ml): 3%; ID50 (CV-1 cells): 480 nanograms/ml
microcolin B,0.096 µg/mL,146.0 nanograms/ml,93%,87%,80%,39%,1%,< 1%,< 1%,< 1%,< 1%,< 1%,< 1%,< 1%,78%,121%,107%,105%,97%,114%,% LCV Control ([4]; 160.0 ng/ml): 99%; % LCV Control ([4]; 312.5 ng/ml): 110%; % LCV Control ([4]; 625.0 ng/ml): 88%; % LCV Control ([4]; 1250.0 ng/ml): 75%; % LCV Control ([4]; 2500.0 ng/ml): 51%; % LCV Control ([4]; 5000.0 ng/ml): 29%; ID50 (CV-1 cells): 1185 nanograms/ml

# Reference: patent US5091368A, “Biologically active compounds from blue-green algae” (Harbor Branch Oceanographic Institution, Inc., priority 1990, dated 1992)
